Measurements published in US5858684A, “Method of screening calcium receptor-active molecules” (priority 1995, dated 1999).
“Also recorded” adds a separate entry of the source.

Experiments:
[1] = serum/blood ionized Ca2+ in rats; assay type: in vivo, rat
Protocol: Compounds shown to activate the bovine parathyroid cell calcium receptor in vitro were tested for hypocalcemic activity in vivo. Male Sprague-Dawley rats (200 g) were maintained on a low calcium diet for one week prior to receiving test substance or vehicle as control. Blood was collected from the tail vein three hours after the intraperitoneal administration of NPS 467. […] Serum total calcium, albumin and phosphate were measured by techniques well known in the art.
Rats (male, Sprague-Dawley, 250-300 g) were fed standard rat chow and fasted overnight prior to the experiment. NPS R-467 was suspended in corn oil and administered as a single oral dose through a gavage needle. Three hours later a sample of blood was taken from the tail vein and assessed for ionized Ca^2+ levels.

[2] = biological target: T1, human parathyroid cell calcium receptor (pHuPCaR 5.2, pHuPCaR 4.0) (Homo sapiens, UniProt P41180); assay: Cl- current in Xenopus oocytes expressing cloned human parathyroid calcium receptor; assay type: cell-based; conditions: for concentrations evoking increases in Cl- current: 0.3 mM extracellular Ca2+; for response in the absence of extracellular Ca2+: no extracellular Ca2+
T1 sequence (P41180 with tags, fused parts or gaps INS536PLTFVLSVLQ/Q926R/E1011Q): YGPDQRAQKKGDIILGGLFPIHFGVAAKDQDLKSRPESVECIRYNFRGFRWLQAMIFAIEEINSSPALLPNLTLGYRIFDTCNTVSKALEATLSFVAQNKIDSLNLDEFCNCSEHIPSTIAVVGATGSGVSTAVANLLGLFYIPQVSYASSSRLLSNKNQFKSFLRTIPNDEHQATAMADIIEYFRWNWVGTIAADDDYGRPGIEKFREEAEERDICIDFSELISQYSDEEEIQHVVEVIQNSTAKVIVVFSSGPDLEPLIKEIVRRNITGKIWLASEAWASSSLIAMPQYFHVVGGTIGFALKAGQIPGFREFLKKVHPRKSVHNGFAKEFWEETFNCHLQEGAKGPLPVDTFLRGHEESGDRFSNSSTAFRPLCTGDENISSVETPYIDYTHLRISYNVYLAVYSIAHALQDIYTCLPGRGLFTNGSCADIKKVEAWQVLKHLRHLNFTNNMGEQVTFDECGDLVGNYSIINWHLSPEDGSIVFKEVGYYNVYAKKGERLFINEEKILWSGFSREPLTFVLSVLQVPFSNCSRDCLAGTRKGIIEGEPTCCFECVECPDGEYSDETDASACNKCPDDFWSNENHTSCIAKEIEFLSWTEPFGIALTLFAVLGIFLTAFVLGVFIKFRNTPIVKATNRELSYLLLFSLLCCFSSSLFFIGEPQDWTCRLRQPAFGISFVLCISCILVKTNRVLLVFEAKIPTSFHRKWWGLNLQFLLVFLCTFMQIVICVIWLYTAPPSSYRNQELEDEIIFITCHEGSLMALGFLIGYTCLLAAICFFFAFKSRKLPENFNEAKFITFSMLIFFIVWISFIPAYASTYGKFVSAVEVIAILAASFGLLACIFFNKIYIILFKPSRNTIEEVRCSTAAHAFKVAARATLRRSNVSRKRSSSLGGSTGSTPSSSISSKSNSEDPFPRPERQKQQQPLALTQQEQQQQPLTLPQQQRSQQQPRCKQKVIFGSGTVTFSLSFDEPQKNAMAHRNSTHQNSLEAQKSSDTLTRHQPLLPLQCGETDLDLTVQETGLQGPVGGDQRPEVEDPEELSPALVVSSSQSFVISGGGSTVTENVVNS
Protocol: Representative cDNA inserts for both size classes were subcloned into the plasmid vector pBluescript SK. Linearization followed by in vitro transcription using T7 RNA polymerase produced cRNA transcripts. The cRNA transcripts were injected into Xenopus oocytes (150 ng/μl RNA; 50 nl/oocyte) for functional analysis. Following incubation periods of 2-4 days, the oocytes were assayed for the presence of functional calcium receptors. Both clone types gave rise to functional calcium receptors as assessed by the stimulation of calcium-activated chloride currents upon addition of appropriate calcium receptor agonists. […] Thus, both clones encode a functional, human parathyroid cell calcium receptor.
Xenopus oocytes were injected with pHuPCaR 5.2, the 5.2 Kb cDNA encoding a parathyroid cell calcium receptor derived from a human parathyroid cell adenoma. (See Example 27.) After two to three days, Cl^- currents were measured in the oocytes using a two-electrode voltage clamp.

C-cell calcium receptor = biological target: T2, C-cell calcium receptor (Rattus norvegicus, UniProt P48442); assay: increase in [Ca2+]i in C-cell line 44-2; assay type: cell-based; conditions: 1 mM extracellular Ca2+
T2 sequence (P48442 20-1079): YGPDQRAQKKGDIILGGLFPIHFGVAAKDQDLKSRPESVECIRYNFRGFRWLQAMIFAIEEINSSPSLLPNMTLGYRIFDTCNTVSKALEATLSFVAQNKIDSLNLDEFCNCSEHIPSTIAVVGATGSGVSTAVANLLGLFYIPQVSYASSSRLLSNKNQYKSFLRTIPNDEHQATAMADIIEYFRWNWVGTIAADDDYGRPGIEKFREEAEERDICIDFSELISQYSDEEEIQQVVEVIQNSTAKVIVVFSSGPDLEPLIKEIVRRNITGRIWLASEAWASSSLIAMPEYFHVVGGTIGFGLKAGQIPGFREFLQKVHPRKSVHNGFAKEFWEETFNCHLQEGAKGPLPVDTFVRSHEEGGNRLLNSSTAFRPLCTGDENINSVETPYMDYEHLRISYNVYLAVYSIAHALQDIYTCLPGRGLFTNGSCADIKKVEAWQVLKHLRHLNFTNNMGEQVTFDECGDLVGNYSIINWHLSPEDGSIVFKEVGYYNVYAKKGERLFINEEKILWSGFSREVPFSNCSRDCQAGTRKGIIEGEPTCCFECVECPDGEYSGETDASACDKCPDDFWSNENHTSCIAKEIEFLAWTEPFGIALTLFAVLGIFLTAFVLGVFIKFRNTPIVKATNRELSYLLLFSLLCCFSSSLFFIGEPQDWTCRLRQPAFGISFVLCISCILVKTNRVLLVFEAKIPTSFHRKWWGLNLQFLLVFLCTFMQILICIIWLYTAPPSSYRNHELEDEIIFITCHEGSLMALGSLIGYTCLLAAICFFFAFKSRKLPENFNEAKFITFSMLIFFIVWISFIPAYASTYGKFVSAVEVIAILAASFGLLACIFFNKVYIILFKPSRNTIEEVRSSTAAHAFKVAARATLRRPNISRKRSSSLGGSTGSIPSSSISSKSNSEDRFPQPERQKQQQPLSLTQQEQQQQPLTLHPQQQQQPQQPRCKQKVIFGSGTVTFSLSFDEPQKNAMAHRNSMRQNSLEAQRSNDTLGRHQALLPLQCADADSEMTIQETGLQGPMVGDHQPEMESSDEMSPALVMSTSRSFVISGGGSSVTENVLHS
Text: C-cells appear to express a calcium receptor that is structurally similar to that present on parathyroid cells (see Example 31). […] Thus, compounds in this structural series appear to activate the C-cell calcium receptor.

[3] = hypocalcemic response in parathyroidectomized rats; assay type: in vivo, rat; conditions: NPS R-467 10 mg/kg i.p., 6 hours; NPS R-568 oral
Text: To determine the primary target tissue upon which NPS R-467 acts to cause a hypocalcemic response, the parathyroid glands in rats were surgically removed. Animals receiving a total parathyroidectomy become hypocalcemic and are largely dependent upon dietary calcium to maintain serum Ca^2+ homeostasis.

[4] = 10 mg/kg i.p., single dose, normal diet

Compound	decrease in serum ionized Ca2+ from the control level [1, 4] [%]	time to maximal fall in serum ionized Ca2+ [1, 4] [h]	serum ionized Ca2+, oral ([1]; single oral dose in corn oil, 3 hours)	activation of oocyte-expressed human receptor [2]	increase in [Ca2+]i in 44-2 C-cells (C-cell calcium receptor)	serum ionized Ca2+ in parathyroidectomized rats [3]	concentrations evoking increases in Cl- current [2] [µM]	response in the absence of extracellular Ca2+ [2]	plasma Ca2+ ([1]; p.o., rats)	effect on extracellular Ca2+ concentration-response curve [2]
COc1cccc([C@@H](C)NCCCc2ccccc2)c1 (single isomer, unassigned) [NPS R-467]	22	≤ 1	lowers serum ionized calcium; also recorded: dose-dependent reduction in serum levels of ionized	activated the oocyte-expressed receptor at about the same concentrations	concentration-dependent increase	did not cause any change in serum ionized	–	–	–	–
NCCCNCCCCNCCCNCCCNCCCNC(=O)Cc1c[nH]c2ccccc12 [NPS 019]	–	–	–	–	–	–	3 to 30	persisted	–	–
COc1cccc([C@@H](C)NCCCc2ccccc2Cl)c1 [NPS R-568, (R)-(+)-N-[3-(2-chlorophenyl)propyl]-amethyl-α-3-methoxybenzylamine]	–	–	–	activated the oocyte-expressed receptor at about the same concentrations	concentration-dependent increase	fails to elicit a hypocalcemic response	3 to 30	abolished	rapid, dose-dependent decrease	shifted the concentration-response curve to the left
